Reference: EP2556062B1, “AMIDE DERIVATIVES OF AVENALUMIC ACID, PROCESS FOR PREPARING SAME AND COSMETIC COMPOSITIONS CONTAINING SAME” (Produits Chimiques Auxiliaires et de Synthese, priority 2010, dated 2011)

Experiments:
[1] = DPPH radical scavenging test (free-radical trapping); format: biochemical; settings: DPPH 0,5mM, 37°C, 30 minutes, absorbance at 517 nm; for % inhibition (C=25µM): compound 25µM; for % inhibition (C=80µM): compound 80µM; for % inhibition (C=): compound
Description: Cette étude mesure l'activité antiradicalaire d'un composé par capture du radical DPPH. Ce test est largement utilisé pour étudier la capacité d'un composé à donner un hydrogène.
L'activité se traduit par une décoloration du DPPH (violet). L'absorbance (densité optique DO) a été mesurée à 517 nm au bout de trente minutes sur un spectrophotomètre UV-visible thermostaté à 37°C. Le résultat est exprimé en pourcentage d'inhibition déterminé par la formule : [formula]
Cette activité a été comparée à celle des produits de référence vitamine E, acide férulique et vinylogue de l'acide férulique [dérivé (17)].

[2] = Auto-oxidation by the ferric thiocyanate (FTC) method: AAPH-induced lipid peroxidation of linoleic acid; format: biochemical; settings: 25 micromoles; absorbance at 500nm versus time over five hours; activity not superior to that of acide férulique
Text: Cette méthode met en évidence la capacité de capter le radical peroxyle par le dérivé à tester. La méthode est basée sur une peroxydation lipidique de l'acide linoléique, émulsionné par le Tween 20®.
Cette peroxydation est réalisée par action d'un initiateur de radicaux libres, le dihydrochlorhydrate de 2,2'-azobis(2-amidino)propane (AAPH). Le radical peroxyle formé réagit avec le dérivé à tester et conduit à la formation d'un hydroperoxyde et d'un radical alkoxyle ArO˙. Ce dernier réagit avec le radical peroxyle et permet la formation de produits non radicalaires.
Par ailleurs, les radicaux peroxyle continuent d'oxyder le substrat (l'acide linoléique) pour former également un hydroperoxyde. Cet hydroperoxyde oxyde le fer ferreux présent in situ pour conduire à la formation de fer ferrique Fe^3+ qui se complexe à l'anion thiocyanate.
Le complexe rouge de thiocyanate ferrique formé absorbe à 500nm.
Le degré d'oxydation est quantifié par l'absorbance mesurée. L'activité antioxydante du dérivé à tester est donc la capacité à retarder la peroxydation lipidique. Plus la durée pour atteindre le maximum d'absorbance est longue, plus l'antioxydant est puissant.
Cette étude est réalisée sur une période de cinq heures avec un intervalle de temps d'une heure. Le résultat est exprimé par l'absorbance en fonction du temps. La concentration des molécules dans le milieu est de 25 micromoles.

| Compound | % inhibition (C=25µM) [1] [%] | % inhibition (C=80µM) [1] [%] | % inhibition (C=) [1] [%] | activité antioxydante [2] |
| --- | --- | --- | --- | --- |
| COc1cc(/C=C/C(=O)O)ccc1O [Acide férulique, reference compound] | 50 | 78 | 61 |  |
| Cc1c(C)c2c(c(C)c1O)CC[C@@](C)(CCC[C@H](C)CCC[C@H](C)CCCC(C)C)O2 [Vit.E, vitamine E, reference compound] | 41 | 92 | 86 |  |
| COC(=O)c1scc(C)c1NC(=O)/C=C/c1ccc(O)c(OC)c1 [compound 3, 3-{[(2E)-3-(4-hydroxy-3-méthoxyphényl)prop-2-ènoyl]amino}-4-méthylthiophène-2-carboxylatede méthyle] | 45 | 72 | 48 | ont une activité antioxydante |
| COc1cc(/C=C/C(=O)Nc2c(C)csc2C(=O)O)ccc1O [compound 4, Acide 3-{[(2E)-3-(4-hydroxy-3-méthoxyphényl)prop-2-ènoyl]amino}-4-méthylthiophène-2-carboxylique] | 41 | 50 | 31 | ont une activité antioxydante |
| COc1cc(/C=C/C=C/C(=O)O)ccc1O [compound 17, Acide (2E,4E)-5-[4-hydroxy-3-méthoxyphényl]penta-2,4-diénoique, reference compound] | 62 | 81 | 65 |  |
| COC(=O)c1scc(C)c1NC(=O)/C=C/C=C/c1ccc(O)c(OC)c1 [compound 21, 3-{[(2E,4E)-5-(4-hydroxy-3-méthoxyphényl)penta-2,4-diènoyl]amino}-4-méthylthiophène-2-carboxylatede méthyle] | 68 | 93 | 74 | ont une activité antioxydante |
| COc1cc(/C=C/C=C/C(=O)Nc2c(C)csc2C(=O)O)ccc1O [compound 22, Acide 3-{[(2E,4E)-5-(4-hydroxy-3-méthoxyphényl)penta-2,4-diènoyl]amino}-4-méthylthiophène-2-carboxylique] | 50 | 73 | 54 | ont une activité antioxydante |
